Test results: patent US5441962A, “Method for treating hyperlipemia” (priority 1992, dated 1995)
Counter-ions that a name gives are not always drawn.

Assays:
[1] = Serum lipid and blood glucose level in experimental sclerosis rabbits; assay type: in vivo, Male Japanese white rabbits; conditions: rabbit, oral 3 mg once per day, after five months
From the text: (§1) In this example, the effects of the present compound on the wall of a blood vessel, a serum lipid and a blood glucose level were studied on the experimental sclerosis rabbits from the determination of the arterial sclerosis action, the assay of the components constituting the wall of the blood vessel and the transitional analysis of the damage of the blood wall with time.
(§2) Male Japanese white rabbits (25 months age) were randomly divided into three groups. A normal diet was given to one group (called hereafter "healthy group"). The remaining two groups were fed with 100 g/day of a high α-starch, high salinity and low protein, sclerosis diet containing 0.3% cholesterol (manufactured by Funabashi Farm), simultaneously injected intramuscularly with norepinephrine (3 mg) and bred for 150 days. One group of them was called hereafter "sclerosis group". […] Every 50 days, Aortic Pulse Wave Velocity (PWV) was measured to determine a average hardness of aorta of the rabbits. After five months and just before slaughter of the rabbits, blood was drawn to determine cholesterol in blood (T-Cho), triglyceride (TG), β-lipoprotein (β-Lp), HDL choresterol and a blood glucose level. After slaughter, a fifth intercostal pars in the thoracic aorta was extracted and then subjected to formalin fixation and embedding in paraffin. Subsequently, each component of smooth muscle cell (SMC), elastin (EL), collagen (CL), glycosaminoglycan (GAGs), PAS positive substance (PAS), calcium (Ca) and cholesterol (Cho) was histochemically observed and assayed.

[2] = test system: experimental sclerosis rabbits; experiment: Change of Aortic Pulse Wave Velocity (ΔPWV) in experimental sclerosis rabbits; assay type: in vivo, Male Japanese white rabbits
From the text: as §1, §2
PWV is increasing with the advance of growth, maturation and ageing. Thus an increase in PWV value is an indication of arterial sclerosis (see Arterial Sclerosis, vol. 8, No. 1 April 1980, pp 91-95).

Wall of Aorta = experiment: Proportion of components constituting the wall of aorta (histochemical assay, fifth intercostal pars of thoracic aorta); assay type: in vivo, Male Japanese white rabbits
From the text: as §1, §2

in vivo = conditions: mouse, in vivo, po, average
mice = experiment: in vivo; conditions: oral
[3] = rabbit, oral 3 mg once per day, after 150 days

Cl.Cn1cc(OCC(O)CNC(C)(C)C)c2ccccc2c1=O (racemic) [(±)-4-(3-tert.-butylamino-2-hydroxypropoxy)-2-methyl-1 (2H)-isoquinolinone hydrochloride]
Blood glucose level [1]: 162.50 mg/dL | Cholesterol in blood (T-Cho) [1]: 25.25 mg/dL | HDL cholesterol (HDL-C) [1]: 15.44 mg/dL | Triglyceride (TG) [1]: 65.40 mg/dL | β-lipoprotein (β-Lp) [1]: 2.75 mg/dL | PWV as compared with the sclerosis group ([2]; 150 days, vs sclerosis group): significantly improved | Δ PWV, 0-50 days ([2]; rabbit, sclerosis diet + norepinephrine i.m., oral capsule 3 mg once per day, 0-50 days): -0.110 m/sec | Δ PWV, 51-100 days ([2]; rabbit, sclerosis diet + norepinephrine i.m., oral capsule 3 mg once per day, 51-100 days): -0.290 m/sec | Δ PWV, 101-150 days ([2]; rabbit, sclerosis diet + norepinephrine i.m., oral capsule 3 mg once per day, 101-150 days): -0.890 m/sec | Improvement in arterial sclerosis (Wall of Aorta; Table 2, drug administered group): remarkable improvement in arterial sclerosis | Proportion of PAS positive substance (PAS) in the wall of aorta (Wall of Aorta; [3]): 27.83 % E | Proportion of calcium (Ca) in the wall of aorta (Wall of Aorta; [3]): 1.92 % E | Proportion of cholesterol (Cho) in the wall of aorta (Wall of Aorta; [3]): 0.68 % E | Proportion of collagen (CL) in the wall of aorta (Wall of Aorta; [3]): 30.33 % E | Proportion of elastin (EL) in the wall of aorta (Wall of Aorta; [3]): 40.56 % E | Proportion of glycosaminoglycan (GAGs) in the wall of aorta (Wall of Aorta; [3]): 16.03 % E | Proportion of smooth muscle cell (SMC) in the wall of aorta (Wall of Aorta; [3]): 46.72 % E | LD50 (in vivo; female mice): 1290 mg/kg | LD50 (in vivo; male mice): 1390 mg/kg

CC(C)(C)NCC(O)COc1c[nH]c(=O)c2ccccc12 (centres unmarked) [4-(3-tert.-butylamino-2-hydroxypropoxy)-1-isoquinolinonehydrochloride]
LD50 (in vivo; female mice): 1290 mg/kg | LD50 (in vivo; male mice): 1390 mg/kg | LD50, range in parentheses (mice; female mice): 1063 to 1566 mg/kg | LD50, range in parentheses (mice; male mice): 1223 to 1587 mg/kg
